According to patent US20120108422A1, “Antifungal 1,2,4-triazolyl Derivatives” (BASF SE, priority 2009, published 2012):

Assay: physchem

With `CC(Cc1ccc(F)cc1F)CC(O)(Cn1nc[nH]c1=S)C(C)(C)C` (centres unmarked) [Example 2, 2-[2-tert-butyl-5-(2,4-difluorophenyl)-2-hydroxy-4-methyl-pentyl]-2,4-dihydro-[1,2,4]triazole-3-thione] as the compound, how does the logP read?
Its logP is 3.8.

For `CC(C)(C)C(O)(CCCc1ccc(F)cc1F)Cn1nc[nH]c1=S` (centres unmarked) [Example 10, 2-[2-tert-butyl-5-(2,4-difluoro-phenyl)-2-hydroxy-pentyl]-2,4-dihydro-[1,2,4]triazole-3-thione], which logP is on record?
The logP was 3.3.

Which logP does the source give for `CC(C)(C)C(O)(CCCCc1ccc(F)cc1)Cn1nc[nH]c1=S` (centres unmarked) [Example 15, 1-[2-tert-Butyl-6-(4-fluorophenyl)-2-hydroxyhexyl]-1H-1,2,4-triazole-5(4H)-thione] here?
The logP was 3.7.

For `CC(C)(C)C(O)(CCCCc1ccccc1)Cn1nc[nH]c1=S` (centres unmarked) [Example 16, 1-[2-tert-butyl-6-phenyl-2-hydroxyhexyl]-1H-1,2,4-triazole-5(4H)-thione], which logP is on record?
Its logP is 3.6.

Which logP does the source give for `CC(C)(C)C(O)(CCCCc1ccc(Cl)cc1)Cn1nc[nH]c1=S` (centres unmarked) [Example 17, 1-[2-tert-butyl-6-(4-chlorophenyl)-2-hydroxyhexyl]-1H-1,2,4-triazole-5(4H)-thione] here?
Its logP is 4.2.

Which logP does the source give for `CC(C)(C)C(O)(CCCCc1ccccc1Cl)Cn1nc[nH]c1=S` (centres unmarked) [Example 18, 1-[2-tert-butyl-6-(2-chlorophenyl)-2-hydroxyhexyl]-1H-1,2,4-triazole-5(4H)-thione] here?
The logP was 4.

Which logP does the source give for `CC(C)(C)C(O)(CCCCc1ccccc1F)Cn1nc[nH]c1=S` (centres unmarked) [Example 19, 1-[2-tert-butyl-6-(2-fluorophenyl)-2-hydroxyhexyl]-1H-1,2,4-triazole-5(4H)-thione] here?
Its logP is 3.4.

With `CC(C)(C)C(O)(CCCCc1ccc(Cl)cc1Cl)Cn1nc[nH]c1=S` (centres unmarked) [Example 20, 1-[2-tert-butyl-6-(2,4-dichlorophenyl)-2-hydroxyhexyl]-1H-1,2,4-triazole-5(4H)-thione] as the compound, how does the logP read?
The logP was 4.7.

With `CC(C)(C)C(O)(CCCCCc1ccc(F)cc1)Cn1nc[nH]c1=S` (centres unmarked) [Example 21, 1-[2-tert-butyl-7-(4-fluorophenyl)-2-hydroxyheptyl]-1H-1,2,4-triazole-5(4H)-thione] as the compound, how does the logP read?
The logP was 4.

For `CC(C)(C)C(O)(CCCCCc1ccccc1F)Cn1nc[nH]c1=S` (centres unmarked) [Example 22, 1-[2-tert-butyl-7-(2-fluorophenyl)-2-hydroxyheptyl]-1H-1,2,4-triazole-5(4H)-thione], which logP is on record?
The logP was 4.2.

With `CC(C)(C)C(O)(CCCCCc1ccc(Cl)cc1)Cn1nc[nH]c1=S` (centres unmarked) [Example 23, 1-[2-tert-butyl-7-(4-chlorophenyl)-2-hydroxyheptyl]-1H-1,2,4-triazole-5(4H)-thione] as the compound, how does the logP read?
Its logP is 4.4.
